Molecules are shown by their SMILES. Activity calls are given as the source filed them.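 The calls were made as follows: active = clearly stronger inhibition of the target decarboxylase than of the coupling enzymes tested in parallel without it; inactive = the rest.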

Target in one assay: not listed separately
Kind of assay: S. pneumoniae DPM-DC inhibitor potency, dose response, biochemical, PK/LDH-coupled NADH fluorescence, hexokinase coupling counter-screen (AID 550). To be noted: purified DPM-DC, measured here: coupling enzymes counter-screen (hexokinase). Background: Counterscreens check selectivity or assay interference.
In general, IC50 refers to the concentration at which inhibition is half-maximal. In turn, `CC(/C=N/n1cnnc1)=C\c1ccco1` showed a half-maximal inhibitory concentration (IC50) of 3440 µM.

On to `COC(=O)Sc1nnc(-c2ccc(Br)cc2)o1`, for which the IC50 is 19.6 µM.

Turning to `Nc1nc2c(s1)CCc1c-2cnn1-c1ccccc1`, the IC50 was 21 µM.

Compound `CCN(CC)c1ccc(/C=N/n2c(=S)[nH]nc(C)c2=O)cc1` yielded a concentration for half-maximal inhibition (IC50) of 39.5 µM.

Compound `O=c1c2ccccc2[se]n1-c1ccccc1` returned an IC50 of 38.4 µM.

`CCn1nc(-c2cccs2)nc2c(=O)n(C)c(=O)nc1-2` yielded a 50% inhibitory concentration (IC50) of 5.99 µM.

`CN(C)[C@@H]1C(=O)C(C(N)=O)=C(O)[C@@]2(O)C(=O)C3=C(O)c4c(O)cccc4[C@@](C)(O)[C@H]3[C@H](O)[C@@H]12`: the half-maximal inhibitory concentration (IC50) was 125 µM.

In turn, `O=C(O)c1cccn2c(=O)c3ccccc3nc12` had an IC50 of 54 µM.

`Clc1cccc(-c2ccc(/C=N/n3cnnc3)o2)c1` had a half-maximal inhibitory concentration (IC50) of 3720 µM.

As to `CCn1nc(-c2ccccc2)nc2c(=O)n(C)c(=O)nc1-2`, the IC50 was determined as 13.5 µM.

For the next assay, the target named is diphosphomevalonate decarboxylase (Streptococcus pneumoniae D39). Described as above. As to conditions: purified DPM-DC.
Consider `CN(C)[C@@H]1C(=O)C(C(N)=O)=C(O)[C@@]2(O)C(=O)C3=C(O)c4c(O)cccc4[C@@](C)(O)[C@H]3[C@H](O)[C@@H]12`, for which the IC50 result is “inactive”.
